Results on six molecules are retold here after patent US20240390471A1, “COMPOUNDS AND ADJUVANT FORMULATIONS USEFUL IN PNEUMOCOCCAL VACCINES” (Merck Sharp & Dohme LLC, priority 2023, published 2024).

For test [1], the system named is S. pneumoniae serotypes of PCV13. The settings on record: PCV13 plus 3M-052 compared to PCV13 alone; cited from earlier work.
In another test the target is T1, human TLR7 (Homo sapiens, UniProt Q9NYK1).
T1 construct: host or cells: HEK-Blue 293 cells expressing human TLR7
T1 sequence (Q9NYK1 27-1049): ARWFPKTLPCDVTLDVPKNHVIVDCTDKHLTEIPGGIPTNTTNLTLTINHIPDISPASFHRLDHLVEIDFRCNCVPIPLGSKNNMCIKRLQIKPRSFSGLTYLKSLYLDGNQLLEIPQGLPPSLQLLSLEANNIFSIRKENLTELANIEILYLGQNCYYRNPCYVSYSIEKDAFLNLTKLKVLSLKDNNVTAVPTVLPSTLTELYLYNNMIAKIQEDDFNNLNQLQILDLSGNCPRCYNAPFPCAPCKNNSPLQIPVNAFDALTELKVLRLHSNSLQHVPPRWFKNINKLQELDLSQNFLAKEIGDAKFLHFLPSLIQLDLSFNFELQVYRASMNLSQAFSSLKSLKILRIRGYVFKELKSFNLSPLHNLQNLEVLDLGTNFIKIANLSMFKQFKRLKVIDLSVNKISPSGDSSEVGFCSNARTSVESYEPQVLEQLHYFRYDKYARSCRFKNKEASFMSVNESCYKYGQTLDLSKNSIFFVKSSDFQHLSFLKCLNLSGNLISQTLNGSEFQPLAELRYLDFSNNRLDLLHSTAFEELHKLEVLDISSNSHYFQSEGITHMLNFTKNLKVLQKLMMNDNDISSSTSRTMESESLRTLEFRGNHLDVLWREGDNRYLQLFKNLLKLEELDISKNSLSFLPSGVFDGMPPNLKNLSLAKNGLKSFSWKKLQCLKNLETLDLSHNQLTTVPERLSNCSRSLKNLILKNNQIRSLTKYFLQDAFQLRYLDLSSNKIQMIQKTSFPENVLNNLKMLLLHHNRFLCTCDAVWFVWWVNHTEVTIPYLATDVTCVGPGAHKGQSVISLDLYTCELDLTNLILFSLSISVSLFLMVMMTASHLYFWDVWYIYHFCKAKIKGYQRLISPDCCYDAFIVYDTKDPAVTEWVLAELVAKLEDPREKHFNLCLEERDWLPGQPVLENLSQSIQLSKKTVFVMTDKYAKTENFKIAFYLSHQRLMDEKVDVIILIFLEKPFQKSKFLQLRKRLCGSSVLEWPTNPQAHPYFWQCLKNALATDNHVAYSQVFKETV
Kind of test: Cell-based TLR 7/8 assay, HEK-Blue TLR7 cells (SEAP reporter). The settings on record: based on Compound concentration only; Compounds formulated as SNEs; read-out: huTLR7 EC50 (converted). As to the method:
(§1) HEK-Blue™ TLR7 and TLR8 cells (InvivoGen) were designed to assess the stimulation of TLR7 and TLR8 by monitoring the activation of NF-κB and AP-1. Compound B-1-SNE samples were diluted 1:2 across an 8-point titration in diluent buffer histidine/PS-20 in a sterile V-bottom plate. 20 μL of samples were transferred to corresponding wells of two flat bottom assay plates. Media was aspirated from HEK-Blue™ human TLR 7 and TLR 8 cells (T-75 flasks) and gently rinsed with pre-warmed (37° C.) DPBS for a total volume of 5 mL/flask. The DPBS was gently removed from the cells and cells were gently manually dislodged and resuspended in 2 mL of DPBS. Cell assay suspensions were then prepared at approximately 2.2×10^5 cells per mL of HEK-Blue™ detection medium (InvivoGen). 180 μL of cell suspension in detection medium was added to each well of the two flat bottom assay plates containing the diluted Compound B-1-SNE samples for a final dilution of sample equaling 1:10 (180 μL of cell suspension in detection medium and 20 μL of sample). The cells were then incubated at 37° C. in 5% CO2 for 20 hrs. The reporter gene, NF-Kb, induces the production of secreted embryonic alkaline phosphatase (SEAP) when stimulated and can be monitored using the vendor supplied SEAP detection kit. SEAP colorimetric changes were read at an absorbance of 640 nm using a SpectroMax Stakmax plate reader. […] EC50 values were calculated based on total Compound B-1-SNE concentration using GraphPad Prism Software and analyzed using agonist vs. response variable slope (four parameters) least squares fit.
(§2) Further to the description in Example 10, a cell-based activation system was used to assess activity of the Compound-formulated nanoemulsion systems, prepared as described in examples, supra. HEK-Blue™ TLR7 and TLR8 cells (InvivoGen) were designed to assess the stimulation of TLR7 and TLR8 by monitoring the activation of NF-κB and AP-1. Compound-SNE samples were diluted 1:2 across an 8-point titration in diluent buffer histidine/PS-20 in a sterile V-bottom plate. 20 μL of samples were transferred to corresponding wells of two flat bottom assay plates. Media was aspirated from HEK-Blue™ human TLR 7 and TLR 8 cells (T-75 flasks) and gently rinsed with pre-warmed (37° C.) DPBS for a total volume of 5 mL/flask. The DPBS was gently removed from the cells and cells were gently manually dislodged and resuspended in 2 mL of DPBS. Cell assay suspensions were then prepared at approximately 2.2×10^5 cells per mL of HEK-Blue™ detection medium (InvivoGen). 180 μL of cell suspension in detection medium was added to each well of the two flat bottom assay plates containing the diluted Compound-SNE samples for a final dilution of sample equaling 1:10 (180 μL of cell suspension in detection medium and 20 μL of sample). The cells were then incubated at 37° C. in 5% CO2 for 20 hrs. The reporter gene, NF-Kb, induces the production of secreted embryonic alkaline phosphatase (SLAP) when stimulated and can be monitored using the vendor supplied SLAP detection kit. SLAP colorimetric changes were read at an absorbance of 640 nm using a SpectroMax Stakmax plate reader. EC50s were calculated based on Compound concentration only, not total Compound-SNE concentration (Table 6) using GraphPad Prism Software and analyzed using agonist vs. response variable slope (four parameters) least squares fit.

Another test deals with T2, human TLR8 (Homo sapiens, UniProt Q9NR97).
T2 construct: host or cells: HEK-Blue 293 cells expressing human TLR8
T2 sequence (Q9NR97 27-1041): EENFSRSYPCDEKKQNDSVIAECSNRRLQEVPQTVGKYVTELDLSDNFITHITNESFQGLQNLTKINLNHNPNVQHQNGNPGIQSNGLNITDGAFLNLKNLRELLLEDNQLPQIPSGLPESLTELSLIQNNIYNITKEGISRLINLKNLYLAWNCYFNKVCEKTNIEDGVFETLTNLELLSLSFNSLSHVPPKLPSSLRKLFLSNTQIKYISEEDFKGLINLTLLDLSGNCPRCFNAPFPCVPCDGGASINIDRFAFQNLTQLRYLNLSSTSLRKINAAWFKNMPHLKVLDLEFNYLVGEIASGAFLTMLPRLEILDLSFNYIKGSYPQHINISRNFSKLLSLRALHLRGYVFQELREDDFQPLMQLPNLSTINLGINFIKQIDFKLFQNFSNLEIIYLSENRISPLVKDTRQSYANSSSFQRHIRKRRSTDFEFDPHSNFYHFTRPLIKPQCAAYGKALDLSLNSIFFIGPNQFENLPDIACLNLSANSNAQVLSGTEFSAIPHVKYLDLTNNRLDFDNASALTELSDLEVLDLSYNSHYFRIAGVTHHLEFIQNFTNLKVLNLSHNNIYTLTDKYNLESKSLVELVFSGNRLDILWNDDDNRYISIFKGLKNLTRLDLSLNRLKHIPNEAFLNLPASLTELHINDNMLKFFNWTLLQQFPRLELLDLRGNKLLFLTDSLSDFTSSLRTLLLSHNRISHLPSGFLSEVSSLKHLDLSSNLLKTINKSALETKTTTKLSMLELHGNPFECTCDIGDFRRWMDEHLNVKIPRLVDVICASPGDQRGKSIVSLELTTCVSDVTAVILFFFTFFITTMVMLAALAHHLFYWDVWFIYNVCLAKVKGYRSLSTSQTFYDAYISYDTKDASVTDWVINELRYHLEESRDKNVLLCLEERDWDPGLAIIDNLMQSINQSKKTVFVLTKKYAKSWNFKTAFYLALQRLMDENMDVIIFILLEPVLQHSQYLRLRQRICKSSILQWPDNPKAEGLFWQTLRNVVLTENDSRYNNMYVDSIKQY
In words: Cell-based TLR 7/8 assay, HEK-Blue TLR8 cells (SEAP reporter). Conditions: based on Compound concentration only; Compounds formulated as SNEs; read-out: huTLR8 EC50 (converted). As to the method: as §1, §2

Molecules are shown by their SMILES.

As to `CCCCCCCCCCCCCCCCCC(=O)NCCCCOn1c(CCCC)nc2c(N)nc3ccccc3c21` [Compound 3M-052], the “serotype specific antibody responses (binding titers and opsonophagocytic killing)” value in test [1] was “accelerated and enhanced serotype specific antibody responses”.

On to `CCCCCCCCCCCCCCCCCC(=O)NCCCCN(C)Cc1cc(OC)c(Cn2cc3nc(N)nc(NCCCC)c3n2)c(OC)c1` [Compound C-4, N-(4-((4-((5-amino-7-(butylamino)-2H-pyrazolo[4,3-d]pyrimidin-2-yl)methyl)-3,5-dimethoxybenzyl)(methyl)amino)butyl)stearamide], for which the figures for the EC50 at human TLR7 and on human TLR8 were 4.95 µM and 1.17 µM, respectively.

Turning to `CCCCCCCCCCCCCCCCCC(=O)NCCCC(=O)N(C)Cc1cc(OC)c(Cn2cc3nc(N)nc(NCCCC)c3n2)c(OC)c1` [Compound C-5, N-(4-((4-((5-amino-7-(butylamino)-2H-pyrazolo[4,3-d]pyrimidin-2-yl)methyl)-3,5-dimethoxybenzyl)(methyl)amino)-4-oxobutyl)stearamide], the half-maximal effective concentration (EC50) on human TLR7 was 0.639 µM; at human TLR8, 0.0932 µM.

With `CCCCC/C=C\C/C=C\CCCCCCCCC(CCCCCCCC/C=C\C/C=C\CCCCC)OC(=O)NCCCCN(C)Cc1cc(OC)c(Cn2cc3nc(N)nc(NCCCC)c3n2)c(OC)c1` [Compound D-1, (6Z,9Z,28Z,31Z)-heptatriaconta-6,9,28,31-tetraen-19-yl (4-((4-((5-amino-7-(butylamino)-2H-pyrazolo[4,3-d]pyrimidin-2-yl)methyl)-3,5-dimethoxybenzyl)(methyl)amino)butyl)carbamate], the values for the EC50 on human TLR7 and on human TLR8 were 17.2 µM and 155 µM, respectively.

For `CCCCCCCCCCCCCCCCCC(=O)NCCCNC(=O)N1CCN(c2ccc(Cn3cc4nc(N)nc(NCCCC)c4n3)c(OC)c2)CC1` [Compound D-2, 4-(4-((5-amino-7-(butylamino)-2H-pyrazolo[4,3-d]pyrimidin-2-yl)methyl)-3-methoxyphenyl)-N-(3-stearamidopropyl)piperazine-1-carboxamide], the figures for the EC50 on human TLR7 and at human TLR8 were 17.7 µM and 5.82 µM, respectively.

In the case of `CCCCCCCCCCCCCCCCCC(=O)NCCCOC(=O)N1CCN(c2ccc(Cn3cc4nc(N)nc(NCCCC)c4n3)c(OC)c2)CC1` [Compound D-3, 3-stearamidopropyl 4-(4-((5-amino-7-(butylamino)-2H-pyrazolo[4,3-d]pyrimidin-2-yl)methyl)-3-methoxyphenyl)piperazine-1-carboxylate], the half-maximal effective concentration (EC50) on human TLR7 was 23.7 µM; at human TLR8 it was 13.8 µM.
